Columns and labels:
Type in all cases: in vivo
[1] = system: broccoli; experiment: Soil drench growth enhancing effect, broccoli; conditions: for Average Dry Matter Weight / Average Root Length / Average Shoot Height: 4 treatments every 14 days, 14 days after final treatment
Procedure: (§1) Boron-containing compounds/compositions were applied directly to the soil, and the growth of plants was measured. An exemplary embodiment of a benzoxaborole compound includes 5-chlorobenzo[c][1,2]oxaborol-1(3H)-ol, which may be referred to herein as BAG8.
(§2) Eight 2-gallon pots were filled with steamed soil for each of the five treatments listed below:
(§3) 3-4 seeds were planted into each pot at a depth of 1 inch and covered. All seedlings were subjected to 16 hours of daylight at ˜800 μmol/m^2/second (light intensity) provided by cool-white fluorescent lamps. Daytime temperatures were ˜25° C. and were dropped to ˜18° C. at night.
(§4) Solutions were prepared by first dissolving the appropriate amount of benzoxaborole in ethanol or acetone then adding to distilled water. 100 mL of treatment was applied to each pot in a circular motion to evenly coat the surface of the soil. These treatments were applied every 14 days for a total of 4 treatments, including the at-planting treatment. Each pot was monitored, and 50 mL of distilled water was added to each pot when soil was dry.
(§5) Germination and shoot height data were recorded every seven days. 14 days after the final treatment application, plants were carefully removed from each pot and final shoot length, root length, and dry matter weight were recorded.
(§6) This experiment was conducted on red table beet, broccoli, snow pea, turnips, and spring wheat.

[2] = system: snow pea; experiment: Soil drench growth enhancing effect, snow pea; conditions: for growth effect compared to untreated control: soil drench; for Average Dry Matter Weight / Average Root Length / Average Shoot Height: 4 treatments every 14 days, 14 days after final treatment
Procedure: as §1, §2, §3, §4, §5, §6

[3] = system: spring wheat; experiment: Soil drench growth enhancing effect, spring wheat; conditions: for Average Dry Matter Weight / Average Root Length / Average Shoot Height: 4 treatments every 14 days, 14 days after final treatment
Procedure: as §1, §2, §3, §4, §5, §6

[4] = system: soybean seedlings; experiment: Soil drench treatment on soybean seedlings (perlite); conditions: for Mean Root Length: 10 days after germination, measured 10 days following drench
Procedure: Sample soil drench treatments were prepared by dissolving […], 3.19 mg, or 3.99 mg of BAG8 in 67.5 mL of acetone in separate vials. Each vial was then added to 202.5 mL of water and shaken vigorously to produce a suitable sample for soil drench treatment at rates of 75 g/A, 100 g/A, and 125 g/A, respectively.
Soybean seeds were sown into pots filled with perlite growth medium and allowed to germinate under normal glass house conditions. 10 days after germination the pots were drenched with the respective BAG8 solutions. 10 days following the drench, root lengths were measured. Analysis of variance was used to examine […] length data and means were separated using Fisher's least significant difference at α=0.05.

[5] = system: red table beet; experiment: Soil drench growth enhancing effect, red table beet; conditions: for Average Dry Matter Weight / Average Root Length / Average Shoot Height: 4 treatments every 14 days, 14 days after final treatment
Procedure: as §1, §2, §3, §4, §5, §6

[6] = system: diseased maize; experiment: Field trial, yield of diseased maize
Procedure: In this example, diseased maize having Southern Rust of Maize (Puccinia polysora) was treated with BAG8, Azoxystrobin, and Boscalid. Testing was performed to assess the fungicidal effect of the compounds on Southern Rust of Maize (Puccinia polysora) and to assess the growth enhancing effect of the compounds on the diseased maize.
Maize was planted into 6×30 ft plots and replicated four times in a randomized complete block design. Three treatments and an untreated control were tested for efficacy against Southern Rust of Maize (Puccinia polysora) and assessed for yield at the conclusion of the growing season. Foliar applications of the three treatments, BAG8 at 0.25 pounds of active ingredient per acre, azoxystrobin at 0.25 pounds of active ingredient per acre, and boscalid at 0.24 pounds of active ingredient per acre, were applied to the plots at growth stage V8. Best practices were used consistently across the test plots with regard to field conditions such as fertilization, insect control, weed control, and irrigation. Disease assessments were taken in each plot 28 days after the foliar fungicide application. At maturity, each plot was harvested using standard harvesting equipment. After shelling, the kernels were weighed at 11% moisture and yield calculations extrapolated to bushels per acre.
Analysis of variance (ANOVA) was used to examine disease severity data and means were separated using Fisher's least significant difference (LSD) method at α=0.05. […]

[7] = all rates (0.12-0.60 lb/A), soil drench
[8] = treatment B, 0.12 lb/A soil drench
[9] = treatment C, 0.25 lb/A soil drench
[10] = treatment D, 0.35 lb/A soil drench
[11] = treatment E, 0.60 lb/A soil drench

Structure (SMILES): OB1OCc2cc(Cl)ccc21 [BAG8, 5-chlorobenzo[c][1,2]oxaborol-1(3H)-ol]
- root length and dry matter weight compared with untreated control [1, 7]: longer roots and greater dry matter weight than the untreated control
- treatment effect on average shoot height ([1]; all rates, soil drench): no treatment effect was present
- Average Dry Matter Weight [1, 8]: 10.70 mg
- Average Root Length [1, 8]: 5.60 cm
- Average Shoot Height [1, 8]: 4.50 cm
- Average Dry Matter Weight [1, 9]: 11.10 mg
- Average Root Length [1, 9]: 5.20 cm
- Average Shoot Height [1, 9]: 4.40 cm
- Average Dry Matter Weight [1, 10]: 11.30 mg
- Average Root Length [1, 10]: 5.30 cm
- Average Shoot Height [1, 10]: 4.90 cm
- Average Dry Matter Weight [1, 11]: 13.00 mg
- Average Root Length [1, 11]: 6.50 cm
- Average Shoot Height [1, 11]: 4.50 cm
- growth effect compared to untreated control ([2]; 0.25 pounds per acre): increased the shoot height, root length, and dry matter weight
- growth effect compared to untreated control ([2]; rates other than 0.25 pounds per acre): does not increase average shoot height, average root length, or average dry matter weight
- Average Dry Matter Weight [2, 8]: 102.70 mg
- Average Root Length [2, 8]: 7.10 cm
- Average Shoot Height [2, 8]: 6.90 cm
- Average Dry Matter Weight [2, 9]: 280.10 mg
- Average Root Length [2, 9]: 12.10 cm
- Average Shoot Height [2, 9]: 13.10 cm
- Average Dry Matter Weight [2, 10]: 185.70 mg
- Average Root Length [2, 10]: 8.00 cm
- Average Shoot Height [2, 10]: 9.40 cm
- Average Dry Matter Weight [2, 11]: 130.90 mg
- Average Root Length [2, 11]: 7.90 cm
- Average Shoot Height [2, 11]: 6.50 cm
- growth effect compared with untreated control [3, 7]: longer shoots, longer roots, and greater dry matter weight than the untreated control
- increase in final dry matter weight of wheat ([3]; applied at 0.12 and 0.25 pounds per acre, soil drench): ~250%
- Average Dry Matter Weight [3, 8]: 1204.30 mg
- Average Root Length [3, 8]: 21.30 cm
- Average Shoot Height [3, 8]: 39.50 cm
- Average Dry Matter Weight [3, 9]: 1123.60 mg
- Average Root Length [3, 9]: 24.40 cm
- Average Shoot Height [3, 9]: 39.70 cm
- Average Dry Matter Weight [3, 10]: 640.20 mg
- Average Root Length [3, 10]: 20.40 cm
- Average Shoot Height [3, 10]: 37.50 cm
- Average Dry Matter Weight [3, 11]: 649.70 mg
- Average Root Length [3, 11]: 22.00 cm
- Average Shoot Height [3, 11]: 39.90 cm
- increased root length ([4]; all tested application rates, soil drench, soybean seedlings (Table 12)): 6-27%
- Mean Root Length ([4]; soil drench 75 g ai/A): 329.5 mm
- Mean Root Length ([4]; soil drench 100 g ai/A): 275.8 mm
- Mean Root Length ([4]; soil drench 125 g ai/A): 309.7 mm
- growth effect compared with untreated control ([5]; all application rates (0.12-0.60 lb/A), soil drench): longer shoots, longer roots, and greater dry matter weight than the untreated control
- Average Dry Matter Weight [5, 8]: 10.70 mg
- Average Root Length [5, 8]: 4.50 cm
- Average Shoot Height [5, 8]: 3.33 cm
- Average Dry Matter Weight [5, 9]: 11.10 mg
- Average Root Length [5, 9]: 5.98 cm
- Average Shoot Height [5, 9]: 4.24 cm
- Average Dry Matter Weight [5, 10]: 11.30 mg
- Average Root Length [5, 10]: 5.56 cm
- Average Shoot Height [5, 10]: 4.09 cm
- Average Dry Matter Weight [5, 11]: 13.00 mg
- Average Root Length [5, 11]: 5.15 cm
- Average Shoot Height [5, 11]: 5.01 cm
- increased yield relative to untreated control ([6]; 0.25 lb ai/A foliar): 194%
- Yield ([6]; 0.25 lb ai/A foliar at V8, harvest at maturity, 11% moisture): 146.2 a bu/A

Reference: patent publication US20210030005A1, “BENZOXABOROLE COMPOSITIONS HAVING A GROWTH ENHANCING EFFECT” (BORAGEN, INC., priority 2018, published 2021)
